These results are taken from publication PMC11510069, “Anti-Diabetic Activities and Molecular Docking Studies of Aryl-Substituted Pyrazolo[3,4-b]pyridine Derivatives Synthesized via Suzuki Cross-Coupling Reaction” (Pharmaceuticals, 2024).

Data set [1] has as its target T1, α-amylase (Hi media RM 638) enzyme (Aspergillus oryzae, UniProt P0C1B3).
T1 construct: purchased Hi media RM 638
In words: biochemical. The procedure: The anti-diabetic activity of all the prepared derivatives (6a–i) and (7a–i) was evaluated following the method reported in refs. [31, 32]. In brief, to check the anti-diabetic activity of each compound, […] different concentrations, ranging from 250 to 50 μg, with a difference of 50 μg, were used and each concentration was treated with 200 μL of α-amylase (Hi media RM 638) enzyme to determine the anti-diabetic activity in triplicate at each concentration. Here, 0.6 mL of each sample at each concentration was mixed with 0.6 mL of buffered solution (0.03 M sodium phosphate buffer), which was subsequently incubated for 16 min at 37 °C. Afterwards, 1 mL of starch solution was added to the above solutions. In the next step, 1 mL of color-imparting reagent, […] (DNSA), was poured into each solution and the solution was left for 6 min in boiling water. Finally, the solutions were made up to 20 mL with distilled water. […] The absorbance value taken at 670 nm was used to check the performance of the newly obtained derivatives. The following Equation (1) was used to determine the percentage inhibition of each drug at the different concentrations. (1) %A=Acontrol−Asample/Acontrol×100 where %A, Acontrol and Asample are the percentage inhibition, absorbance blank and absorbance of sample, respectively.
The concentration of pyrazolo[3,4-b]pyridine derivative needed to inhibit the α-amylase activity by 50% is known as the IC50 value and is calculated from the plot of the percent inhibition against the log inhibitor concentration (i.e., synthesized drugs). A non-linear regression analysis on Graph Pad Prism 8.0.2. was performed on the plots to extract the IC50 value for each compound.

Setting [2] is: Table 3, anti-diabetic, hydrazide derivatives, read-out: IC50 Value.
Setting [3] is: Figure 6, read-out: IC50 (α-amylase inhibition).
The mark [4] stands for this setting: Table 2, in vitro anti-diabetic, ester derivatives, read-out: IC50 Value.

Like-named read-outs stand apart in the source and are kept apart here.

Broadly, the IC50 is the concentration at which inhibition is half-maximal. Usually melting point stands for the temperature of the solid-liquid transition.

As to `Cc1nn(-c2ccccc2)c2nc(C(=O)NN)cc(-c3ccc(-c4cccc5c4OCO5)s3)c12` [Compound 7c, 4-(5-(Benzo[d][1,3]dioxol-4-yl)thiophen-2-yl)-3-methyl-1-phenyl-1H-pyrazolo[3,4-b]pyridine-6-carbohydrazide], the melting point worked out at 276 °C. For the same molecule, the IC50 in data set [1] (setting [2]) stood at 5.17 µM.

For `Cc1nn(-c2ccccc2)c2nc(C(=O)NN)cc(-c3ccc(-c4cccc(C(C)(C)C)c4)s3)c12` [Compound 7f, 4-(5-(3-(Tert-butyl)phenyl)thiophen-2-yl)-3-methyl-1-phenyl-1H-pyrazolo[3,4-b]pyridine-6-carbohydrazide], the IC50 in data set [1] (setting [2]) came out at 5.1 µM.

On to `Cc1nn(-c2ccccc2)c2nc(C(=O)NN)cc(-c3ccc(-c4cccc(C(F)(F)F)c4)s3)c12` [Compound 7h, 3-Methyl-1-phenyl-4-(5-(3-(trifluoromethyl)phenyl)thiophen-2-yl)-1H-pyrazolo[3,4-b]pyridine-6-carbohydrazide], for which the IC50 was determined as 6.19 µM in data set [1] (setting [3]) and 5.19 µM in data set [1] (setting [2]).

Consider `CCOC(=O)c1cc(-c2ccc(-c3cccc(C(F)(F)F)c3)s2)c2c(C)nn(-c3ccccc3)c2n1` [Compound 6h, Ethyl 3-Methyl-1-phenyl-4-(5-(3-(trifluoromethyl)phenyl)thiophene-2-yl)-1H-pyrazolo[3,4-b]pyridine-6-carboxylate], for which the melting point is 149.5 °C. Also, in data set [1] (setting [3]), the half-maximal inhibitory concentration (IC50) was determined as 5.56 µM. In addition, in data set [1] (setting [4]), the IC50 is 5.2 µM.

With “Ethyl 4-(5-(3,5-Dimethylphenyl)thiophen-2-yl)-3-methyl-1-phenyl-1H-pyrazolo[3,4-b]pyridine-6-carboxylate [Compound 6e]”, the IC50 in data set [1] (setting [4]) was found to be 9.01 µM.

As to `CCOC(=O)c1cc(-c2ccc(-c3cccs3)s2)c2c(C)nn(-c3ccccc3)c2n1` [Compound 6a, Ethyl 4-([2,2′-Bithiophen]-5-yl)-3-methyl-1-phenyl-1H-pyrazolo[3,4-b]pyridine-6-carboxylate], the melting point was in the range of 154 to 157 °C. Also, the concentration for half-maximal inhibition (IC50) in data set [1] (setting [4]) is 8.38 µM.

`CCOC(=O)c1cc(-c2ccc(-c3ccc(Cl)s3)s2)c2c(C)nn(-c3ccccc3)c2n1` [Compound 6i, Ethyl 4-(5′-Chloro-[2,2′-bithiophen]-5-yl)-3-methyl-1-phenyl-1H-pyrazolo[3,4-b]pyridine-6-carboxylate] displayed a melting point of 165 °C. Besides, in data set [1] (setting [4]), the IC50 came to 7.4 µM.

As for `Cc1nn(-c2ccccc2)c2nc(C(=O)NN)cc(-c3ccc(-c4ccccc4)s3)c12` [Compound 7b, 3-Methyl-1-phenyl-4-(5-phenylthiophen-2-yl)-1H-pyrazolo[3,4-b]pyridine-6-carbohydrazide], in data set [1] (setting [2]), the IC50 turned out to be 5.18 µM.

Molecule `Cc1nn(-c2ccccc2)c2nc(C(=O)NN)cc(-c3ccc(-c4cccc(F)c4F)s3)c12` [Compound 7g, 4-(5-(2,3-Fluorophenyl)thiophen-2-yl)-3-methyl-1-phenyl-1H-pyrazolo[3,4-b]pyridine-6-carbohydrazide] showed a melting point of 275 °C. The IC50 in data set [1] (setting [3]) turned out to be 5.16 µM. For the same molecule, the IC50 in data set [1] (setting [2]) worked out at 5.15 µM.

In turn, `CCOC(=O)c1cc(-c2ccc(-c3cc(OC)cc(OC)c3)s2)c2c(C)nn(-c3ccccc3)c2n1` [Compound 6d, Ethyl 4-(5-(3,5-Dimethoxyphenyl)thiophene-2-yl)-3-methyl-1-phenyl-1H-pyrazolo[3,4-b]pyridine-6-carboxylate] gave a melting point of 147.5 °C. Also, the IC50 in data set [1] (setting [4]) was 7.06 µM.

`Cc1ccc(-c2ccc(-c3cc(C(=O)NN)nc4c3c(C)nn4-c3ccccc3)s2)c(C)c1` [Compound 7e, 4-(5-(2,4-Dimethylphenyl)thiophen-2-yl)-3-methyl-1-phenyl-1H-pyrazolo[3,4-b]pyridine-6-carbohydrazide]: the IC50 in data set [1] (setting [2]) worked out at 8.94 µM.

With `CCOC(=O)c1cc(-c2ccc(-c3cccc4c3OCO4)s2)c2c(C)nn(-c3ccccc3)c2n1` [Compound 6c, Ethyl 4-(5-(Benzo[d][1,3]dioxol-4-yl)thiophen-2-yl)-3-methyl-1-phenyl-1H-pyrazolo[3,4-b]pyridine-6-carboxylate], the melting point came to 127 °C. Also, the IC50 in data set [1] (setting [4]) came to 5.15 µM.

Molecule `CCOC(=O)c1cc(-c2ccc(Br)s2)c2c(C)nn(-c3ccccc3)c2n1` [Compound 4, Ethyl 4-(5-Bromothiophen-2-yl)-3-methyl-1-phenyl-1H-pyrazolo[3,4-b]pyridine-6-carboxylate] gave a melting point of 203 to 205 °C. The IC50 in data set [1] (setting [4]) was found to be 7.26 µM.

`Cc1nn(-c2ccccc2)c2nc(C(=O)NN)cc(-c3ccc(Br)s3)c12` [Compound 5, 4-(5-Bromothiophen-2-yl)-3-methyl-1-phenyl-1H-pyrazolo[3,4-b]pyridine-6-carbohydrazide] had a melting point of 265 °C. In addition, the IC50 in data set [1] (setting [2]) came to 7.91 µM.

The molecule `Cc1nn(-c2ccccc2)c2nc(C(=O)NN)cc(-c3ccc(-c4cccs4)s3)c12` [Compound 7a, 4-([2,2′-Bithiophen]-5-yl)-3-methyl-1-phenyl-1H-pyrazolo[3,4-b]pyridine-6-carbohydrazide] had a melting point of 255 °C. The IC50 in data set [1] (setting [2]) was 5.21 µM.

As for `CCOC(=O)c1cc(-c2ccc(-c3cccc(F)c3F)s2)c2c(C)nn(-c3ccccc3)c2n1` [Compound 6g, Ethyl 4-(5-(2,3-Difluorophenyl)thiophen-2-yl)-3-methyl-1-phenyl-1H-pyrazolo[3,4-b]pyridine-6-carboxylate], the melting point was 170.3 °C. Besides, the IC50 in data set [1] (setting [3]) stood at 5.2 µM. Besides, the IC50 in data set [1] (setting [4]) was determined as 5.56 µM.

`Cc1nn(-c2ccccc2)c2nc(C(=O)NN)cc(-c3ccc(-c4ccc(Cl)s4)s3)c12` [Compound 7i, 4-(5′-Chloro-[2,2′-bithiophen]-5-yl)-3-methyl-1-phenyl-1H-pyrazolo[3,4-b]pyridine-6-carbohydrazide] came in with a melting point of 270 °C. Moreover, in data set [1] (setting [2]), the IC50 amounted to 8.45 µM.

For the molecule `COc1cc(OC)cc(-c2ccc(-c3cc(C(=O)NN)nc4c3c(C)nn4-c3ccccc3)s2)c1` [Compound 7d, 4-(5-(3,5-Dimethoxyphenyl)thiophen-2-yl)-3-methyl-1-phenyl-1H-pyrazolo[3,4-b]pyridine-6-carbohydrazide], the melting point turned out to be 249 °C. Besides, the IC50 in data set [1] (setting [2]) came to 5.12 µM.

With `CCOC(=O)c1cc(-c2ccc(-c3cccc(C(C)(C)C)c3)s2)c2c(C)nn(-c3ccccc3)c2n1` [Compound 6f, Ethyl 4-(5-(3-(Tert-butyl)phenyl)thiophen-2-yl)-3-methyl-1-phenyl-1H-pyrazolo[3,4-b]pyridine-6-carboxylate], the half-inhibitory concentration (IC50) in data set [1] (setting [3]) is 58.7 µM; in data set [1] (setting [4]), 58.6 µM.

As to `CCOC(=O)c1cc(-c2ccc(-c3ccccc3)s2)c2c(C)nn(-c3ccccc3)c2n1` [Compound 6b, Ethyl 3-Methyl-1-phenyl-4-(5-phenylthiophen-2-yl)-1H-pyrazolo[3,4-b]pyridine-6-carboxylate], in data set [1] (setting [4]), the IC50 was found to be 5.14 µM.
